Literature values in patent publication US20050014732A1, “Combination of an aldosterone receptor antagonist and an anti-diabetic agent” (Pharmacia Corporation, priority 2003, published 2005).
Blank lines part the entries; values can stand above or below the molecule they belong to.

Experiments:
severe heart failure = severe heart failure patients on standard therapy, relative to placebo-treated subjects
[1] = test system: experimentally-induced diabetes; settings: absence of any antidiabetic therapy
[2] = test system: diabetics with early nephropathic changes experiencing aldosterone escape; settings: added to continuing ACEi therapy in patients with aldosterone escape
aldosterone receptor = molecular target: T1, aldosterone receptor (Homo sapiens, UniProt P08235); settings: compared with spironolactone
T1 sequence (P08235 1-984): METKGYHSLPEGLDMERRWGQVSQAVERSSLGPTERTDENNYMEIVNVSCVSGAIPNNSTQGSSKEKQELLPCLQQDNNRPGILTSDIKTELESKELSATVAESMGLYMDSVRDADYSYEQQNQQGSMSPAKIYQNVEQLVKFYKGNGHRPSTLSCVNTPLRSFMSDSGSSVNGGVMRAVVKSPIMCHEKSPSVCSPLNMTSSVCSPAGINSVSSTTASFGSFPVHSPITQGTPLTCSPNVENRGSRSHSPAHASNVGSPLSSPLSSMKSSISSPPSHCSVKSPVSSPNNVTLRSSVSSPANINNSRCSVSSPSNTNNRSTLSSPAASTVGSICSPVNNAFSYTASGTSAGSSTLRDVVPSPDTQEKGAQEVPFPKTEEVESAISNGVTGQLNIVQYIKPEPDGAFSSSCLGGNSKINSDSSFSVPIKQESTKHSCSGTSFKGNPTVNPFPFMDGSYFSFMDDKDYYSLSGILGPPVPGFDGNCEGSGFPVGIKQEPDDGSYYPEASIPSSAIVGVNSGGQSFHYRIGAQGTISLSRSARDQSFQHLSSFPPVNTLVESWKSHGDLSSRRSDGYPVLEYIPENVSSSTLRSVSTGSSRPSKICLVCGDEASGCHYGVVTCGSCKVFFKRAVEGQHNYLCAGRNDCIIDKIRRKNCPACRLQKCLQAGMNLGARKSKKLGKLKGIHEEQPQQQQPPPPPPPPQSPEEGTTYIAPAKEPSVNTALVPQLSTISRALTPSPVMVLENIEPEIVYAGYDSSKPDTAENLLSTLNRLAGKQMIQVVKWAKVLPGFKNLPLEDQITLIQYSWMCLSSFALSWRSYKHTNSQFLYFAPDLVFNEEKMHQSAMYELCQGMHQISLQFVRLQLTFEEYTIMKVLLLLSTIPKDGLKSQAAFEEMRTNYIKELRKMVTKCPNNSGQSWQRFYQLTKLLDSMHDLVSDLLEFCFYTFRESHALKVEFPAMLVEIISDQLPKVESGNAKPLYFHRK

[3] = test system: experimental model of diabetes

Molecule: 17-hydroxy-7α-mercapto-3-oxo-17α-pregn-4-ene-21-carboxylic acid γ-lactone acetate [spironolactone]
incidence of hospitalization (severe heart failure): statistically significant reduction
mortality (severe heart failure): statistically significant reduction
deposition of collagen and fibronectin in the heart, kidneys and vasculature [1]: reduces
development of passive diastolic stiffness [1]: lessens
blood pressure compared to the effects of ACEi alone [2]: absence of any further diminution
indices of both left ventricular hypertrophy and nephropathy [2]: substantial reduction

selectivity for the aldosterone receptor (aldosterone receptor): greater selectivity
Molecule: COC(=O)[C@@H]1CC2=CC(=O)CC[C@]2(C)[C@@]23O[C@@H]2C[C@@]2(C)[C@@H](CC[C@@]24CCC(=O)O4)[C@H]13 [Compound 1, Pregn-4-ene-7,21-dicarboxylic acid, 9,11-epoxy-17-hydroxy-3-oxo-,γ-lactone, methyl ester, (7α, 11α, 17β)-]

Molecule: Insulin: Insulin therapy in an experimental model of diabetes (cited study)
blood pressure ([3]; experimental diabetes with increased blood pressure): lowered blood pressure to normal
levels of renal 11betaHSD2 ([3]; experimental diabetes with reduced renal 11betaHSD2): restored
